In patent US20240398781A1, “SPIROCYCLIC CYCLIC MODULATORS OF CHOLESTEROL BIOSYNTHESIS AND THEIR USE FOR PROMOTING REMYELINATION” (GENENTECH, INC., priority 2021, published 2024):

Tests used:
[1] = target: human emopamil binding protein and human 7-dehydrocholesterol reductase co-expressing cells (hEBP-DHCR7 membrane) (Homo sapiens (Human), UniProt Q15125); assay: Radioligand filter binding assay on hEBP-DHCR7 membrane; settings: [3H]-(S)-6-(2-Methyl-3-(6-(trifluoromethyl)pyridin-3-yl)propyl)-2-thia-6-azaspiro[3.4]octane 2,2-dioxide radioligand, HEK293 membrane co-expressing hEBP and hDHCR7
Summary of the method: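 HEK293 cells transiently co-expressing human EBP and DHCR7 supplied whole-cell membranes (10 μg/well), incubated 3 h at 22 °C with [3H]-labelled spiro-octane dioxide ligand (added at 25 nM) and compound (0.06-5000 nM final, 8 doses, n=2). Bound ligand was collected on PEI-treated GF/B filters and counted by scintillation. IC50 was Hill-fitted from % inhibition and reported as Ki.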

[2] = tested on: EBP (zymostenol accumulation in EpiSC-derived OPCs); assay: GC/MS-based sterol profiling, zymostenol accumulation in OPCs; assay type: cell-based, mouse; settings: Mus musculus, 24 h, EpiSC-derived OPCs, 24 hr treatment, 8 doses from 0.15 nM to 333 nM; read-out: Zymostenol GCMS EC50
Summary of the method: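 EpiSC-derived OPCs (100,000/well) were treated 24 h in N2B27 without growth factors. Sterols were TMS-derivatized and analysed by GC/MS full-scan EI, quantified against cholesterol-d7. Zymostenol was normalized to the level after 24 h with 100 nM positive control reference.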

Chain of human emopamil binding protein and human 7-dehydrocholesterol reductase co-expressing cells (hEBP-DHCR7 membrane) (Q15125 whole entry): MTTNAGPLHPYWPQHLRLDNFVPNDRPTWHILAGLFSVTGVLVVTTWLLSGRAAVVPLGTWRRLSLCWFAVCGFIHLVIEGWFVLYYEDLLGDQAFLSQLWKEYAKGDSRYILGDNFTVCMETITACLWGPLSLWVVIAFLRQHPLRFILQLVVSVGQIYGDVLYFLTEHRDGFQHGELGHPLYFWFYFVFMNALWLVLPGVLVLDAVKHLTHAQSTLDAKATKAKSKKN

Ki [1] [nM]	EC50 [2] [nM]	Structure (SMILES)
26.8	2.6	O=S1(=O)CC2(CCN([C@@H]3CC[C@@H](c4ccc(C(F)(F)F)cc4)C3)C2)C1 [Compound 1B, 6-((1R,3R)-3-(4-(trifluoromethyl)phenyl)cyclopentyl)-2-thia-6-azaspiro[3.4]octane 2,2-dioxide]
44.5	56	Cn1nc(C(F)(F)F)cc1[C@H]1CC[C@@H](N2CCC3(C2)CS(=O)(=O)C3)CC1 [Compound 2A, 6-((1s,4s)-4-(1-methyl-3-(trifluoromethyl)-1H-pyrazol-5-yl)cyclohexyl)-2-thia-6-azaspiro[3.4]octane 2,2-dioxide]
69.3	12	Cn1nc(C(F)(F)F)cc1[C@H]1CC[C@H](N2CCC3(C2)CS(=O)(=O)C3)CC1 [Compound 2B, 6-((1r,4r)-4-(1-methyl-3-(trifluoromethyl)-1H-pyrazol-5-yl)cyclohexyl)-2-thia-6-azaspiro[3.4]octane 2,2-dioxide]
15.8	2.1	O=S1(=O)CC2(CCN([C@H]3CC[C@H](c4ccc(C(F)(F)F)cc4)CC3)C2)C1 [Compound 3A, 6-((1r,4r)-4-(4-(trifluoromethyl)phenyl)cyclohexyl)-2-thia-6-azaspiro[3.4]octane 2,2-dioxide]
27.5	16	O=S1(=O)CC2(CCN([C@H]3CC[C@@H](c4ccc(C(F)(F)F)cc4)CC3)C2)C1 [Compound 3B, 6-((1s,4s)-4-(4-(trifluoromethyl)phenyl)cyclohexyl)-2-thia-6-azaspiro[3.4]octane 2,2-dioxide]
51.8	2.5	O=S1(=O)CC2(CCN(C3CCN(c4ccc(C(F)(F)F)cc4)CC3)C2)C1 [Compound 4, 6-(1-(4-(trifluoromethyl)phenyl)piperidin-4-yl)-2-thia-6-azaspiro[3.4]octane 2,2-dioxide]
148	50	O=S1(=O)CC2(CCN(C3CCN(c4ccc(C(F)(F)F)nc4)CC3)C2)C1 [Compound 5, 6-(1-(6-(trifluoromethyl)pyridin-3-yl)piperidin-4-yl)-2-thia-6-azaspiro[3.4]octane 2,2-dioxide]
23	14	O=S1(=O)CC2(CCN(C3CCN(c4ccc(C(F)(F)F)cn4)CC3)C2)C1 [Compound 6, 6-(1-(5-(trifluoromethyl)pyridin-2-yl)piperidin-4-yl)-2-thia-6-azaspiro[3.4]octane 2,2-dioxide]
17.5	34	Cc1cc(C(F)(F)F)cnc1N1CCC(N2CCC3(C2)CS(=O)(=O)C3)CC1 [Compound 7, 6-(1-(3-methyl-5-(trifluoromethyl)pyridin-2-yl)piperidin-4-yl)-2-thia-6-azaspiro[3.4]octane 2,2-dioxide]
34	14	CC(C)n1nc(C(F)(F)F)cc1[C@H]1CC[C@H](N2CCC3(C2)CS(=O)(=O)C3)CC1 [Compound 8A, 6-((1r,4r)-4-(1-isopropyl-3-(trifluoromethyl)-1H-pyrazol-5-yl)cyclohexyl)-2-thia-6-azaspiro[3.4]octane 2,2-dioxide]
32.9	26	CC(C)n1nc(C(F)(F)F)cc1[C@H]1CC[C@@H](N2CCC3(C2)CS(=O)(=O)C3)CC1 [Compound 8B, 6-((1s,4s)-4-(1-isopropyl-3-(trifluoromethyl)-1H-pyrazol-5-yl)cyclohexyl)-2-thia-6-azaspiro[3.4]octane 2,2-dioxide]
34	11	O=S1(=O)CC2(CCN([C@H]3CC[C@H](c4cc(C(F)(F)F)nn4C4CC4)CC3)C2)C1 [Compound 12A, 6-((1r,4r)-4-(1-Cyclopropyl-3-(trifluoromethyl)-1H-pyrazol-5-yl)cyclohexyl)-2-thia-6-azaspiro[3.4]octane 2,2-dioxide]
32	23	O=S1(=O)CC2(CCN([C@H]3CC[C@@H](c4cc(C(F)(F)F)nn4C4CC4)CC3)C2)C1 [Compound 12B, 6-((1s,4s)-4-(1-Cyclopropyl-3-(trifluoromethyl)-1H-pyrazol-5-yl)cyclohexyl)-2-thia-6-azaspiro[3.4]octane 2,2-dioxide]
59	11	O=S1(=O)CC2(CCN([C@H]3CC[C@H](c4ccc(C(F)(F)F)nc4)CC3)C2)C1 [Compound 14A, 6-((1r,4r)-4-(6-(Trifluoromethyl)pyridin-3-yl)cyclohexyl)-2-thia-6-azaspiro[3.4]octane 2,2-dioxide]
28	43	O=S1(=O)CC2(CCN([C@H]3CC[C@@H](c4ccc(C(F)(F)F)nc4)CC3)C2)C1 [Compound 14B, 6-((1s,4s)-4-(6-(Trifluoromethyl)pyridin-3-yl)cyclohexyl)-2-thia-6-azaspiro[3.4]octane 2,2-dioxide]
56	4	CCn1nc(C(F)(F)F)cc1[C@H]1CC[C@H](N2CCC3(C2)CS(=O)(=O)C3)CC1 [Compound 15, 6-((1r,4r)-4-(1-Ethyl-3-(trifluoromethyl)-1H-pyrazol-5-yl)cyclohexyl)-2-thia-6-azaspiro[3.4]octane 2,2-dioxide]
52	12	CCn1nc([C@H]2CC[C@H](N3CCC4(C3)CS(=O)(=O)C4)CC2)cc1C(F)(F)F [Compound 16, 6-((1r,4r)-4-(1-Ethyl-5-(trifluoromethyl)-1H-pyrazol-3-yl)cyclohexyl)-2-thia-6-azaspiro[3.4]octane 2,2-dioxide]
32	12	Cc1cc(C(F)(F)F)ncc1[C@H]1CC[C@@H](N2CCC3(C2)CS(=O)(=O)C3)CC1 [Compound 21A, 6-((1s,4s)-4-(4-Methyl-6-(trifluoromethyl)pyridin-3-yl)cyclohexyl)-2-thia-6-azaspiro[3.4]octane 2,2-dioxide]
46	50	Cc1cc(C(F)(F)F)ncc1[C@H]1CC[C@H](N2CCC3(C2)CS(=O)(=O)C3)CC1 [Compound 21B, 6-((1r,4r)-4-(4-Methyl-6-(trifluoromethyl)pyridin-3-yl)cyclohexyl)-2-thia-6-azaspiro[3.4]octane 2,2-dioxide]
21	31	O=S1(=O)CC2(CCN([C@H]3CC[C@@H](c4cc(C(F)(F)F)nn4C4CCC4)CC3)C2)C1 [Compound 23A, 6-((1s,4s)-4-(1-Cyclobutyl-3-(trifluoromethyl)-1H-pyrazol-5-yl)cyclohexyl)-2-thia-6-azaspiro[3.4]octane 2,2-dioxide]
12	9	O=S1(=O)CC2(CCN([C@H]3CC[C@H](c4cc(C(F)(F)F)nn4C4CCC4)CC3)C2)C1 [Compound 23B, 6-((1r,4r)-4-(1-Cyclobutyl-3-(trifluoromethyl)-1H-pyrazol-5-yl)cyclohexyl)-2-thia-6-azaspiro[3.4]octane 2,2-dioxide]
11	3	O=S1(=O)CC2(CCN([C@H]3CC[C@H](c4cc(C(F)(F)F)n(C5CCC5)n4)CC3)C2)C1 [Compound 24, 6-((1r,4r)-4-(1-cyclobutyl-5-(trifluoromethyl)-1H-pyrazol-3-yl)cyclohexyl)-2-thia-6-azaspiro[3.4]octane 2,2-dioxide]
450	43	Cn1nc(C(F)(F)F)cc1[C@H]1CC[C@@H](N2CCC3(CC2)CS(=O)(=O)C3)CC1 [Compound 25A, 7-((1s,4s)-4-(1-Methyl-3-(trifluoromethyl)-1H-pyrazol-5-yl)cyclohexyl)-2-thia-7-azaspiro[3.5]nonane 2,2-dioxide]
270	26	Cn1nc(C(F)(F)F)cc1[C@H]1CC[C@H](N2CCC3(CC2)CS(=O)(=O)C3)CC1 [Compound 25B, 7-((1r,4r)-4-(1-methyl-3-(trifluoromethyl)-1H-pyrazol-5-yl)cyclohexyl)-2-thia-7-azaspiro[3.5]nonane 2,2-dioxide]
30	7.5	Cc1cc(C(F)(F)F)ncc1N1CCC(N2CCC3(C2)CS(=O)(=O)C3)CC1 [Compound 28, 6-(1-(4-Methyl-6-(trifluoromethyl)pyridin-3-yl)piperidin-4-yl)-2-thia-6-azaspiro[3.4]octane 2,2-dioxide]
230	7.1	Cc1nc(C(F)(F)F)ccc1N1CCC(N2CCC3(C2)CS(=O)(=O)C3)CC1 [Compound 29, 6-(1-(2-methyl-6-(trifluoromethyl)pyridin-3-yl)piperidin-4-yl)-2-thia-6-azaspiro[3.4]octane 2,2-dioxide]
13	5	O=S1(=O)CC2(CCN(C3CCN(c4ncc(C(F)(F)F)cc4Cl)CC3)C2)C1 [Compound 30, 6-(1-(3-chloro-5-(trifluoromethyl)pyridin-2-yl)piperidin-4-yl)-2-thia-6-azaspiro[3.4]octane 2,2-dioxide]
11	7	O=S1(=O)CC2(CCN(C3CCN(c4ncc(C(F)(F)F)cc4F)CC3)C2)C1 [Compound 32, 6-(1-(3-fluoro-5-(trifluoromethyl)pyridin-2-yl)piperidin-4-yl)-2-thia-6-azaspiro[3.4]octane 2,2-dioxide]

Structure (SMILES)	Ki [1] [nM]	EC50 [2] [nM]
Cc1cc(F)cnc1N1CCC(N2CCC3(C2)CS(=O)(=O)C3)CC1 [Compound 31, 6-(1-(5-fluoro-3-methylpyridin-2-yl)piperidin-4-yl)-2-thia-6-azaspiro[3.4]octane 2,2-dioxide]	84	32
